The values below come from patent US20110053897A1 (IRM LLC, priority 2009, published 2011).

Each structure is given as a SMILES string.

In the first assay the target is T1, Syk kinase (Homo sapiens, UniProt P43405).
T1 construct: purchased
The assay is described as follows: Syk kinase inhibition, Caliper LabChip off-chip mobility-shift kinase assay. The class given is biochemical. Conditions: Caliper LabChip assay; read-out: Syk Enzyme IC50. The method, boiled down: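 Purified Syk pre-incubated 15 min with compound in 100 mM HEPES pH 7.5, 1 mM DTT, 10 mM MgCl2 or MnCl2, 0.002% Brij-35, then 1.5 μM fluorescein peptide and ATP at apparent KM added; 1–1.5 h at room temperature, 4% DMSO, EDTA stop. Microfluidic mobility-shift product/substrate conversion gave % inhibition; IC50 from 12-point series (10–0.00003 μM) by 4-parameter fit.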
Take `Cc1ccnc(Nc2cc3ccn(CCO)c(=O)c3c(N)n2)c1` [compound 813]: the IC50 was 1050 nM.

As for `CCn1ccc2cc(Nc3cnccn3)nc(N[C@@H]3CCC[C@H]3O)c2c1=O` [compound 940], the IC50 was found to be 483 nM.

On to `O=c1c2c(N[C@H]3CC[C@H](O)CC3)nc(Nc3cnccn3)cc2ccn1CCO` [compound 989], for which the IC50 worked out at 15 nM.

For `Cc1ccnc(Nc2cc3ccn(CCO)c(=O)c3c(NC3(C)CCC3)n2)c1` [compound 599], the IC50 was found to be 286 nM.

As for `Cc1ccnc(Nc2cc3ccn(C)c(=O)c3c(Nc3ccc(OCCN4CCOCC4)cc3)n2)c1` [compound 653], the IC50 was determined as 333 nM.

In the case of `O=c1c2c(N[C@H]3CC[C@@H](O)CC3)nc(Nc3cnccn3)cc2ccn1C1CS(=O)(=O)C1` [compound 1010], the IC50 is 10 nM.

On to `COC/C=C/c1cc(Nc2cc3ccn(CCO)c(=O)c3c(NC(C)(C)C)n2)ncn1` [compound 621], for which the IC50 stood at 94 nM.

Regarding `CC(C)Nc1nc(-c2cnc(N)nc2)cc2ccn(CCO)c(=O)c12` [compound 892], the IC50 was found to be 136 nM.

For the molecule `CCn1ccc2cc(-c3cnc(N)nc3)nc(NS(C)(=O)=O)c2c1=O` [compound 744, N-(3-(2-Aminopyrimidin-5-yl)-7-ethyl-8-oxo-7,8-dihydro-2,7-naphthyridin-1-yl)methane sulfonamide], the IC50 was 202 nM.

Consider `Nc1ncc(-c2cc3ccn(C[C@H](O)CO)c(=O)c3c(NC3CCCC3)n2)cn1` [compound 776], for which the 50% inhibitory concentration (IC50) is 18 nM.

Turning to `CC(C)(C)Nc1nc(Nc2cc(-c3nc(CO)cs3)ccn2)cc2ccn(CCO)c(=O)c12` [compound 843], the IC50 was found to be 82 nM.

In the case of `CC(C)(C)Nc1nc(Nc2cnccn2)cc2ccn(C[C@H](O)CO)c(=O)c12` [compound 669], the IC50 worked out at 6 nM.

For `CC(C)(C)Nc1nc(Nc2cc(CNCCO)ccn2)cc2ccn(CCO)c(=O)c12` [compound 608], the IC50 is < 5.65 nM.

Consider `CC(C)(O)COc1cc(Nc2cc3ccn(CCO)c(=O)c3c(NC(C)(C)C)n2)ncn1` [compound 641], for which the IC50 amounted to 56 nM.

Take `Cc1ccnc(Nc2cc3ccn(CCO)c(=O)c3c(NCC(F)F)n2)c1` [compound 815]: the IC50 came to 117 nM.

In the case of `CC(C)(C)Nc1nc(Nc2cnccn2)cc2ccn(CC(O)C(F)(F)F)c(=O)c12` (stereo not shown) [compound 1011], the IC50 amounted to 459 nM.

For `CC(C)n1ccc2cc(Nc3c[n+]([O-])ccn3)nc(N[C@H]3CC[C@@H](O)C3)c2c1=O` [compound 1017], the IC50 was determined as 25 nM.

Take `CC1(Nc2nc(Nc3cc(C(C)(C)O)ccn3)cc3ccn(CCO)c(=O)c23)CCC1` [compound 704]: the IC50 stood at 45 nM.

On to `CC(C)(C)Nc1nc(-c2cnc(N)nc2)cc2ccn(CCO)c(=O)c12` [compound 899], for which the IC50 stood at 17 nM.

In the case of `COCC(COC)n1ccc2cc(Nc3cnccn3)nc(NC(C)(C)C)c2c1=O` [compound 937], the IC50 came to 12 nM.

With `CCn1ccc2cc(Nc3cnccn3)nc(N)c2c1=O` [compound 802], the IC50 worked out at 1180 nM.

For `[2H][C@]1(O)CC[C@@H](Nc2nc(Nc3cnccn3)cc3ccn(CC)c(=O)c23)CC1` [compound 992], the half-inhibitory concentration (IC50) was 12 nM.

Take `Cc1ccnc(Nc2cc3ccn(C(C)C)c(=O)c3c(N[C@H]3CC[C@@H](CO)C3)n2)c1` [compound 987]: the half-maximal inhibitory concentration (IC50) was 60 nM.

Consider `CC(C)(C)Nc1nc(Nc2cc(-c3ccccn3)ccn2)cc2ccn(CCO)c(=O)c12` [compound 841], for which the IC50 is 291 nM.

Consider `Cc1ccnc(Nc2cc3ccn(CCCO)c(=O)c3c(N[C@H]3CC[C@@H](O)CC3)n2)c1` [compound 947], for which the IC50 stood at 19 nM.

In the case of `CC(C(N)=O)n1ccc2cc(-c3cnc(N)nc3)nc(NC(C)(C)C)c2c1=O` (stereo not shown) [compound 665], the IC50 came to 5 nM.

In the case of `C[C@H](O)c1ccnc(Nc2cc3ccn(CCO)c(=O)c3c(NC(C)(C)C)n2)c1` [compound 714], the IC50 was 13 nM.

For the molecule `CC(C)(C)Nc1nc(-c2cnc(N)nc2)cc2ccn(CC(O)C(F)(F)F)c(=O)c12` (stereo not shown) [compound 926], the IC50 came to 50 nM.

Turning to `CCn1ccc2cc(-c3cnc(N)nc3)nc(N[C@H]3CC[C@H](O)CC3)c2c1=O` [compound 1032], the IC50 was 46 nM.

As for `CC(C)Nc1nc(Nc2cc(N3CCC(O)CC3)ccn2)cc2ccn(CCO)c(=O)c12` [compound 852], the IC50 came out at 300 nM.

Turning to `[2H]C([2H])([2H])n1ccc2cc(Nc3cc(Cl)ccn3)nc(N[C@@H](C)CO)c2c1=O` [compound 1051], the IC50 is 60.4 nM.

On to `CC(C)(C)Nc1nc(Nc2cc(/C(N)=N/O)ccn2)cc2ccn(CCO)c(=O)c12` [compound 869], for which the IC50 was found to be 6 nM.

`Cc1ccnc(Nc2cc3ccn(CCO)c(=O)c3c(Nc3ccc(C(=O)N4CCOCC4)c(C)c3)n2)c1` [compound 650]: the IC50 is 186 nM.

Still in this assay, the particulars now being: read-out: Syk Enzyme IC50.
Turning to `Cc1ccnc(Nc2cc3cc[nH]c(=O)c3c(NC3CCC3)n2)c1` [compound 485], the IC50 amounted to 45 nM.

Take `CC(C)Nc1nc(Nc2cc(Cl)ccn2)cc2cc[nH]c(=O)c12` [compound 484]: the IC50 is 54 nM.

`CCNC(=O)c1ccc(Nc2nc(Nc3cnccn3)cc3ccn(C)c(=O)c23)cc1` [compound 381]: the IC50 was determined as 604 nM.

For the molecule `COCCn1ccc2cc(Nc3cnccn3)nc(NC(C)C)c2c1=O` [compound 319], the IC50 was determined as 137 nM.

Regarding `CC[C@H](C)Nc1nc(-c2cnc(N)nc2)cc2cc[nH]c(=O)c12` [compound 187], the IC50 came to 301 nM.

For `O=c1c2c(N[C@H]3CC[C@@H](O)CC3)nc(Nc3cc(Cl)ccn3)cc2ccn1CCO` [compound 384], the IC50 worked out at 17 nM.

For `Cc1ccnc(Nc2cc3cc[nH]c(=O)c3c(NCCN(C)C)n2)c1` [compound 588], the IC50 was determined as 1960 nM.

As to `CCC(C)C(=O)N1CCC(c2ccc(Nc3nc(-c4cncc(OC)n4)cc4cc[nH]c(=O)c34)cc2C)CC1` (stereo not shown) [compound 76], the IC50 was 225 nM.

For `COc1cncc(-c2cc3cc[nH]c(=O)c3c(Nc3ccc(C4CN(C)C4)cc3)n2)n1` [compound 146], the IC50 is 4 nM.

`O=c1[nH]ccc2cc(Nc3ccccn3)nc(NC3CCOC3)c12` (stereo not shown) [compound 287]: the IC50 was found to be 148 nM.

For the molecule `CNC(C)(C)C(=O)N1CCC(c2ccc(Nc3nc(-c4cncc(OC)n4)cc4cc[nH]c(=O)c34)cc2C)CC1` [compound 84], the IC50 was 5 nM.

Regarding `Cc1cc(Nc2nc(Nc3cc(C(=O)O)ccn3)cc3cc[nH]c(=O)c23)ccc1C1CCN(C2CC2)CC1` [compound 261], the IC50 was found to be 249 nM.

For `COCCCc1cc2cc[nH]c(=O)c2c(Nc2ccc(N3CCOCC3)cc2)n1` [compound 240], the concentration for half-maximal inhibition (IC50) was 356 nM.

Regarding `O=c1[nH]ccc2cc(C3CCSCC3)nc(Nc3ccc(N4CCOCC4)cc3)c12` [compound 15], the IC50 was found to be 702 nM.

As for `CCN1CCN(C2CCC(c3ccc(Nc4nc(-c5cncnc5)cc5cc[nH]c(=O)c45)cc3)CC2)CC1` (stereo not shown) [compound 108], the IC50 worked out at 116 nM.

Take `Cc1ccnc(Nc2cc3ccn(C)c(=O)c3c(Nc3ccc(C4CCOCC4)nc3)n2)c1` [compound 372]: the IC50 worked out at 393 nM.

Turning to `[2H]C([2H])([2H])n1ccc2cc(Nc3cnccn3)nc(N[C@@H](C)CO)c2c1=O` [compound 402], the IC50 came to 45.7 nM.

As for `CC(C)Nc1nc(Nc2cnccn2)cc2ccn(C)c(=O)c12` [compound 347], the IC50 was 57 nM.

In the case of `CCN1CCN(CCc2ccc(Nc3nc(Nc4cc(C(=O)O)ccn4)cc4cc[nH]c(=O)c34)cc2)CC1` [compound 586], the IC50 stood at 226 nM.

In the case of `CCNc1nc(Nc2cc(C)ccn2)cc2cc[nH]c(=O)c12` [compound 566], the IC50 came out at 803 nM.

`CC(C)Nc1nc(Nc2cc(C(=O)O)ccn2)cc2cc[nH]c(=O)c12` [compound 587]: the IC50 is 226 nM.

Consider `Cc1ccnc(Nc2cc3ccn(C)c(=O)c3c(N[C@@H](C)CO)n2)c1` [compound 323], for which the IC50 came to 37 nM.

With `CC(C)Nc1nc(Nc2cc(CO)ccn2)cc2cc[nH]c(=O)c12` [compound 510], the IC50 was 34 nM.

Take `COc1cncc(-c2cc3cc[nH]c(=O)c3c(Nc3ccc(C4CCN(CCO)CC4)c(C)c3)n2)n1` [compound 143]: the IC50 is 5 nM.

Take `Cc1cc(Nc2nc(C(C)O)cc3cc[nH]c(=O)c23)ccc1C1CCNCC1` (stereo not shown) [compound 236]: the half-inhibitory concentration (IC50) came to 12 nM.

Take `Cc1ncc(-c2cc3cc[nH]c(=O)c3c(Nc3ccc(C4CCN(CCCF)CC4)c(C)c3)n2)cn1` [compound 72]: the IC50 was determined as 12 nM.

Take `O=c1[nH]ccc2cc(Nc3ccccn3)nc(NC3CCOCC3)c12` [compound 297]: the IC50 came out at 335 nM.

As for `COc1cncc(-c2cc3cc[nH]c(=O)c3c(Nc3ccc4c(c3)C3CC4CN(C(=O)C(F)(F)F)C3)n2)n1` (stereo not shown) [compound 95], the IC50 was 2370 nM.

In the case of `Cc1cc(Nc2nc(C(C)C)cc3cc[nH]c(=O)c23)ccc1N1CCO[C@H](C)C1` [compound 226], the IC50 turned out to be 1740 nM.

With `O=c1[nH]ccc2cc(Nc3ccc(CCN4CCOCC4)cn3)nc(Nc3ccc(N4CCOCC4)cc3)c12` [compound 568], the IC50 is 549 nM.

Regarding `CNC(=O)C(C)N1CCC(c2ccc(Nc3nc(-c4cncc(OC)n4)cc4cc[nH]c(=O)c34)cc2C)CC1` (stereo not shown) [compound 173], the IC50 came to 11 nM.

As for `Cc1ccnc(Nc2cc3cc[nH]c(=O)c3c(NC3CCCC3)n2)c1` [compound 292], the IC50 was determined as 176 nM.

`COCCN1CCC(c2cc3cc[nH]c(=O)c3c(Nc3ccc(N4CCOCC4)cc3)n2)CC1` [compound 9]: the IC50 is 299 nM.

With `CNS(=O)(=O)c1ccc(Nc2nc(Nc3cnccn3)cc3ccn(C)c(=O)c23)cc1` [compound 350], the IC50 worked out at 803 nM.

On to `CCn1ccc2cc(Nc3cc(Cl)ccn3)nc(NC(C)C)c2c1=O` [compound 305], for which the IC50 came to 257 nM.

As to `CCN1CCN(c2n[nH]c3cc(Nc4nc(-c5cnc(OC)nc5)cc5cc[nH]c(=O)c45)ccc23)CC1` [compound 201], the IC50 amounted to 70 nM.

As to `CN1CCC(Nc2nc(-c3cnc(N)nc3)cc3ccn(C)c(=O)c23)CC1` [compound 31], the IC50 turned out to be 1770 nM.

The IC50 is the concentration that inhibits the measured activity by half.
